In patent US9102648B1, “Bioavailable diacylhydrazine ligands for modulating the expression of exogenous genes via an ecdysone receptor complex” (Intrexon Corporation, priority 2003, dated 2015):
pEC50: −log10 of the molar value. Where two headings read alike, the source gives them in different places.

What was measured:
[1] = biological target: T1, Bombyx mori EcR (VP16 fusion, CVBE switch construct) (Bombyx mori, UniProt P49881); assay: Z3 Assay (HEK-293 cells with CVBE and 6XEcRE LacZ, β-galactosidase reporter); settings: for Fold Induction, Z3 Assay, 3.3 uM: 3.3 uM ligand; for Fold Induction, Z3 Assay, 3.3 uM / Fold Induction, Z3 Assay, 33 uM: ligand treated / DMSO treated cells; for Fold Induction, Z3 Assay, 33 uM: 33 uM ligand; for Z3 assay Rel Max FI: maximum fold induction at any concentration relative to that of GS-E ligand; for fold induction at 3.3 µM: HEK293, read-out: Fold Induction, Z3 Assay, 3.3 uM
T1 sequence (P49881 86-606): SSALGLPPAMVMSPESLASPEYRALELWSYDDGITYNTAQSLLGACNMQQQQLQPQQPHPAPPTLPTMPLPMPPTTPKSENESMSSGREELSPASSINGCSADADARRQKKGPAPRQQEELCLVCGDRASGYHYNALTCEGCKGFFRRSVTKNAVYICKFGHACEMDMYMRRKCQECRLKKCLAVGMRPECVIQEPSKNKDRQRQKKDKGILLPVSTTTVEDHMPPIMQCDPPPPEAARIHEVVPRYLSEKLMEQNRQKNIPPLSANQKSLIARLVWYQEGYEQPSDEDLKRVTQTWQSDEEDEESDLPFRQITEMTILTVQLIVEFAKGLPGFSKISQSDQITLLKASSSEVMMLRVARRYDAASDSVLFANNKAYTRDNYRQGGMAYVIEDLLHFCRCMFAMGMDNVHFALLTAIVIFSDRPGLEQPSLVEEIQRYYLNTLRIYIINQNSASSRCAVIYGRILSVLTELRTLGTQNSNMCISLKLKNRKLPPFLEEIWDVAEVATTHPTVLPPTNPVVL
T1 sequence (P19793 1-462 partner): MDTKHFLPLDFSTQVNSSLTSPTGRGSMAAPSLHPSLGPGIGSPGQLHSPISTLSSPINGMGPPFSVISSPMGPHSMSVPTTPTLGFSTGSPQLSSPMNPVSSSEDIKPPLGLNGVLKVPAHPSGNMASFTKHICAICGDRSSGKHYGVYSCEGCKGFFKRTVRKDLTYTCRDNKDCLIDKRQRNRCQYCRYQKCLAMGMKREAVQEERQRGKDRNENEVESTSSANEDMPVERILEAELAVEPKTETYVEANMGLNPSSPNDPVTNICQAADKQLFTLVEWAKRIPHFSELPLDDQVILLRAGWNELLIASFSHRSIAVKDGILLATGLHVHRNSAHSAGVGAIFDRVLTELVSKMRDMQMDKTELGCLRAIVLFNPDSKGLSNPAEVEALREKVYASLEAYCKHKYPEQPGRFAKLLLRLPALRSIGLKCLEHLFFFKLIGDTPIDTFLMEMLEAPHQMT

[2] = biological target: GAL4 DBD-CfEcR(DEF)/VP16AD-MmRXRE (Choristoneura fumiferana, UniProt O77240); assay: 13B3 Assay (CHO stable cell line, luciferase reporter); settings: for Fold Induction, 13B3 Assay, 3.3 uM: 3.3 uM ligand; for Fold Induction, 13B3 Assay, 3.3 uM / Fold Induction, 13B3 Assay, 33 uM: RLU ligand treated / RLU DMSO treated cells; for Fold Induction, 13B3 Assay, 33 uM: 33 uM ligand; for 13B3 assay Rel Max FI: maximum fold induction at any concentration relative to that of GS-E ligand, CHO 13B3 cells; for fold induction at 3.3 µM: read-out: Fold Induction, 13B3 Assay, 3.3 uM
Outline: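 Ligands dosed at 8 levels from 33 to 0.01 μM (DMSO stocks diluted 300-fold) onto the 13B3 CHO line carrying GAL4-DBD/CfEcR-DEF, VP16/MmRXR-DE and a GAL4-responsive luciferase gene.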

[3] = read-out: Z3 assay EC50, HEK-293 Z3 cells, β-galactosidase reporter, average of two wells
[4] = read-out: 13B3 EC50, CHO 13B3 stable cell line, luciferase reporter, 48 h, average of two wells

SMILES: CCc1ccc(C(=O)NN(C(=O)c2ccc(OC)nc2OC)C(C)(C)C)c(F)c1 [RG-115050]
- Fold Induction, Z3 Assay, 3.3 uM ([1]; average of two wells): 424
- Fold Induction, Z3 Assay, 33 uM ([1]; average of two wells): 1446
- Z3 assay Rel Max FI ([1]; HEK-293 Z3 cells): 0.808
- pEC50 [1, 3]: 6.55
- Fold Induction, 13B3 Assay, 3.3 uM ([2]; average of two wells): 2027
- Fold Induction, 13B3 Assay, 33 uM ([2]; average of two wells): 894
- 13B3 assay Rel Max FI [2]: 0.724
- pEC50 [2, 4]: 6.12

SMILES: Cc1c(C(=O)NN(C(=O)c2ccccc2[S+](C)[O-])C(C)(C)C)ccc2c1OCCO2 (stereo not shown) [RG-115064]
- Fold Induction, Z3 Assay, 3.3 uM ([1]; average of two wells): 1
- Fold Induction, Z3 Assay, 33 uM ([1]; average of two wells): 3
- Z3 assay Rel Max FI ([1]; HEK-293 Z3 cells): 0.031
- pEC50 [1, 3]: < 4.30
- Fold Induction, 13B3 Assay, 3.3 uM ([2]; average of two wells): 2
- Fold Induction, 13B3 Assay, 33 uM ([2]; average of two wells): 415
- 13B3 assay Rel Max FI [2]: 0.000
- pEC50 [2, 4]: < 4.30

SMILES: Cc1cc(C)cc(C(=O)N(NC(=O)c2ccc3c(c2F)COCO3)C(C)(C)C)c1 [RG-115068]
- Fold Induction, Z3 Assay, 3.3 uM ([1]; average of two wells): 54
- Fold Induction, Z3 Assay, 33 uM ([1]; average of two wells): 802
- Z3 assay Rel Max FI ([1]; HEK-293 Z3 cells): 0.804
- pEC50 [1, 3]: 4.68
- Fold Induction, 13B3 Assay, 3.3 uM ([2]; average of two wells): 2828
- Fold Induction, 13B3 Assay, 33 uM ([2]; average of two wells): 1500
- 13B3 assay Rel Max FI [2]: 0.722
- pEC50 [2, 4]: 6.03

SMILES: CCc1ccc(C(=O)NN(C(=O)c2cc(OC)c(C)c(OC)c2)C(C)(C)C)c(F)c1 [RG-115077]
- Fold Induction, Z3 Assay, 3.3 uM ([1]; average of two wells): 294
- Z3 assay Rel Max FI ([1]; HEK-293 Z3 cells): 0.911
- pEC50 [1, 3]: 6.41
- Fold Induction, 13B3 Assay, 3.3 uM ([2]; average of two wells): 932
- Fold Induction, 13B3 Assay, 33 uM ([2]; average of two wells): 199
- 13B3 assay Rel Max FI [2]: 1.509
- pEC50 [2, 4]: 6.07

SMILES: CNCc1c(OC)cccc1C(=O)NN(C(=O)c1cc(C)cc(C)c1)C(C)(C)C [RG-115079, 3,5-dimethyl-benzoic acid N-tert-butyl-N′-(2-methylaminomethyl-3-methoxy-benzoyl)-hydrazide]
- pEC50 [1]: < 4.30
- fold induction at 3.3 µM [1]: 1
- Z3 assay Rel Max FI ([1]; HEK-293 Z3 cells): 0.02
- pEC50 [2]: 7.70
- 13B3 assay Rel Max FI [2]: 0.20
- fold induction at 3.3 µM [2]: 3

SMILES: CCc1c(OC)cccc1C(=O)NN(C(=O)c1cc(F)cc(C(F)(F)F)c1)C(C)(C)C [RG-115088]
- Fold Induction, Z3 Assay, 3.3 uM ([1]; average of two wells): 561
- Fold Induction, Z3 Assay, 33 uM ([1]; average of two wells): 228
- Z3 assay Rel Max FI ([1]; HEK-293 Z3 cells): 0.958
- pEC50 [1, 3]: 6.30
- Fold Induction, 13B3 Assay, 3.3 uM ([2]; average of two wells): 542
- Fold Induction, 13B3 Assay, 33 uM ([2]; average of two wells): 1048
- 13B3 assay Rel Max FI [2]: 0.709
- pEC50 [2, 4]: 5.74

SMILES: CCc1c(OC)cccc1C(=O)NN(C(=O)c1cnc(C)cn1)C(C)(C)C [RG-115091]
- Fold Induction, Z3 Assay, 33 uM ([1]; average of two wells): 61
- Fold Induction, 13B3 Assay, 33 uM ([2]; average of two wells): 1

SMILES: CCc1c(OC)cccc1C(=O)NN(C(=O)c1cc(OC)c(O)c(OC)c1)C(C)(C)C [RG-115116]
- Fold Induction, Z3 Assay, 3.3 uM ([1]; average of two wells): 276
- Z3 assay Rel Max FI ([1]; HEK-293 Z3 cells): 0.960
- pEC50 [1, 3]: 5.48
- Fold Induction, 13B3 Assay, 3.3 uM ([2]; average of two wells): 2
- 13B3 assay Rel Max FI [2]: 1.172
- pEC50 [2, 4]: < 4.30

SMILES: COc1cccc(C(=O)NN(C(=O)c2cc(C)cc(C)c2)C(C)(C)C)c1CF [RG-115160]
- Fold Induction, Z3 Assay, 3.3 uM ([1]; average of two wells): 3
- Fold Induction, Z3 Assay, 33 uM ([1]; average of two wells): 157
- Z3 assay Rel Max FI ([1]; HEK-293 Z3 cells): 0.21
- pEC50 [1, 3]: < 4.30
- Fold Induction, 13B3 Assay, 3.3 uM ([2]; average of two wells): 3
- Fold Induction, 13B3 Assay, 33 uM ([2]; average of two wells): 3
- 13B3 assay Rel Max FI [2]: 0
- pEC50 [2, 4]: < 4.30

SMILES: Cc1c(C(=O)NN(C(=O)c2cc(F)cc(C(F)(F)F)c2)C(C)(C)C)ccc2c1OCCO2 [RG-115169]
- Fold Induction, Z3 Assay, 3.3 uM ([1]; average of two wells): 443
- Z3 assay Rel Max FI ([1]; HEK-293 Z3 cells): 0.956
- pEC50 [1, 3]: 6.46
- Fold Induction, 13B3 Assay, 3.3 uM ([2]; average of two wells): 405
- 13B3 assay Rel Max FI [2]: 0.618
- pEC50 [2, 4]: 6.30

SMILES: COc1cccc(C(=O)NN(C(=O)c2cc(C)cc(C)c2)C(C)(C)C)c1C[S+](C)[O-] (stereo not shown) [RG-115172]
- Fold Induction, Z3 Assay, 3.3 uM ([1]; average of two wells): 1
- Fold Induction, Z3 Assay, 33 uM ([1]; average of two wells): 216
- Z3 assay Rel Max FI ([1]; HEK-293 Z3 cells): 0.32
- pEC50 [1, 3]: < 4.30
- Fold Induction, 13B3 Assay, 3.3 uM ([2]; average of two wells): 1
- 13B3 assay Rel Max FI [2]: 0
- pEC50 [2, 4]: < 4.30

SMILES: CCc1c(OC)cccc1C(=O)NN(C(=O)c1cc(OC)c(OC(C)=O)c(OC)c1)C(C)(C)C [RG-115191]
- Fold Induction, Z3 Assay, 3.3 uM ([1]; average of two wells): 386
- Z3 assay Rel Max FI ([1]; HEK-293 Z3 cells): 0.934
- pEC50 [1, 3]: 5.62
- Fold Induction, 13B3 Assay, 3.3 uM ([2]; average of two wells): 3
- 13B3 assay Rel Max FI [2]: 1.513
- pEC50 [2, 4]: < 4.30

SMILES: COc1cc(C(=O)N(NC(=O)c2cccc(O)c2C)C(C)(C)C)cc(OC)c1C [RG-115220]
- Fold Induction, Z3 Assay, 3.3 uM ([1]; average of two wells): 298
- Z3 assay Rel Max FI ([1]; HEK-293 Z3 cells): 0.591
- pEC50 [1, 3]: 6.06
- Fold Induction, 13B3 Assay, 3.3 uM ([2]; average of two wells): 5
- Fold Induction, 13B3 Assay, 33 uM ([2]; average of two wells): 1143
- 13B3 assay Rel Max FI [2]: 0.125
- pEC50 [2, 4]: < 4.30

SMILES: COc1cccc(C(=O)NN(C(=O)c2cc(C)cc(C)c2)C(C)(C)C)c1COC(C)=O [RG-115225, 3,5-dimethyl-benzoic acid N-tert-butyl-N′-(2-acetoxymethyl-3-methoxy-benzoyl)-hydrazide]
- pEC50 [1]: < 4.30
- fold induction at 3.3 µM [1]: 3
- fold induction at 33 µM ([1]; HEK293, read-out: Fold Induction, Z3 Assay, 33 uM): 571
- Z3 assay Rel Max FI ([1]; HEK-293 Z3 cells): 0.32
- pEC50 [2]: 6.24
- 13B3 assay Rel Max FI [2]: 0.08
- fold induction at 3.3 µM [2]: 3
- fold induction at 33 µM ([2]; read-out: Fold Induction, 13B3 Assay, 33 uM): 8

SMILES: CCc1ccc(C(=O)NN(C(=O)c2cc(F)c(F)c(F)c2)C(C)(C)C)c(F)c1 [RG-115259]
- Fold Induction, Z3 Assay, 3.3 uM ([1]; average of two wells): 91
- Z3 assay Rel Max FI ([1]; HEK-293 Z3 cells): 0.617
- pEC50 [1, 3]: 6.37
- Fold Induction, 13B3 Assay, 3.3 uM ([2]; average of two wells): 3513
- Fold Induction, 13B3 Assay, 33 uM ([2]; average of two wells): 2981
- 13B3 assay Rel Max FI [2]: 0.702
- pEC50 [2, 4]: 5.57

SMILES: CCc1c(C(=O)NN(C(=O)c2cccc(C(F)(F)F)c2)C(C)(C)C)ccc2c1OCO2 [RG-115260]
- Fold Induction, Z3 Assay, 33 uM ([1]; average of two wells): 526
- Fold Induction, 13B3 Assay, 33 uM ([2]; average of two wells): 13

SMILES: CCc1c(OC)cccc1C(=O)NN(C(=O)c1cc(C)cc(C)c1)C(C)(C)COC(C)=O [RG-115310]
- Fold Induction, Z3 Assay, 3.3 uM ([1]; average of two wells): 199
- Fold Induction, Z3 Assay, 33 uM ([1]; average of two wells): 960
- Z3 assay Rel Max FI ([1]; HEK-293 Z3 cells): 0.781
- pEC50 [1, 3]: 5.58
- Fold Induction, 13B3 Assay, 3.3 uM ([2]; average of two wells): 2
- Fold Induction, 13B3 Assay, 33 uM ([2]; average of two wells): 3044
- 13B3 assay Rel Max FI [2]: 0.676
- pEC50 [2, 4]: < 4.30
